According to patent US10363239B2, “Method for inhibiting growth of cancer cells” (Pain Therapeutics, Inc., priority 2013, dated 2019):
Read-outs that look alike come from different tables or passages of the source.

Experiments:
[1] = biological target: FLNA pentapeptide of SEQ ID NO: 1 (Bn-VAKGL) (Homo sapiens, UniProt P21333); assay: FITC-NLX-based FLNA screening assay (inhibition of FITC-naloxone binding to Bn-VAKGL on streptavidin plates); conditions: 10 nM FITC-NLX
[2] = test system: mu opiate receptor (MOR); assay: MOR agonist activity using [35S]GTPγS binding assay in striatal membranes; format: biochemical; conditions: for MOR agonist activity ([35S]GTPγS binding), FLNA-Binding Compound as Agonist 1 μM + BFNA: 1 μM compound + 1 μM β-funaltrexamine
Protocol: To assess the mu opiate receptor (MOR) agonist activity of positive compounds from the FLNA screening, compounds were tested in a [^35S]GTPγS binding assay using striatal membranes. […] This assay measures a functional consequence of receptor occupancy at one of the earliest receptor-mediated events. The assay permits traditional pharmacological parameters of potency, efficacy and antagonist affinity, with the advantage that agonist measures are not subjected to amplification or other modulation that may occur when analyzing parameters further downstream of the receptor.
Thus, striatal tissue was homogenized in 10 volumes of ice cold 25 mM HEPES buffer, pH 7.4, which contained 1 mM EGTA, 100 mM sucrose, 50 μg/ml leupeptin, 0.04 mM PMSF, 2 μg/ml soybean trypsin inhibitor and 0.2% 2-mercaptoethanol. The homogenates were centrifuged at 800×g for 5 minutes and the supernatants were centrifuged at 49,000×g for 20 minutes. The resulting pellets were suspended in 10 volume of reaction buffer, which contained 25 mM HEPES, pH 7.5, 100 mM NaCl, 50 μg/ml leupeptin, 2 μg/ml soybean trypsin inhibitor, 0.04 mM PMSF and 0.02% […].
The resultant striatal membrane preparation (200 μg) was admixed and maintained (incubated) at 30° C. for 5 minutes in reaction buffer as above that additionally contained 1 mM MgCl2 and 0.5 nM [^35S]GTPγS (0.1 μCi/assay, PerkinElmer Life and Analytical Sciences) in a total volume of 250 μl and continued for 5 minutes in the absence or presence of 0.1-10 μM of an assayed compound of interest. The reaction was terminated by dilution with 750 μl of ice-cold reaction buffer that contained 20 mM MgCl2 and 1 mM EGTA and immediate centrifugation at 16,000×g for 5 minutes.
The resulting pellet was solubilized by sonicating for 10 seconds in 0.5 ml of immunoprecipitation buffer containing 0.5% digitonin, 0.2% sodium cholate and 0.5% NP-40. Normal rabbit serum (1 μl) was added to 1 ml of lysate and incubated at 25° C. for 30 minutes. Nonspecific immune complexes were removed by incubation with 25 μl of protein A/G-conjugated agarose beads at 25° C. for 30 minutes followed by centrifugation at 5,000×g at 4° C. for 5 minutes. The supernatant was divided and separately incubated at 25° C. for 30 minutes with antibodies raised against Gαo proteins (1:1,000 dilutions).
The immunocomplexes so formed were collected by incubation at 25° C. for 30 minutes with 40 μl of agarose-conjugated protein A/G beads and centrifugation at 5,000×g at 4° C. for 5 minutes. The pellet was washed and suspended in buffer containing 50 mM Tris-HCl, pH 8.0, and 1% NP-40. The radioactivity in the suspension was determined by liquid scintillation spectrometry.

[3] = FLNA-binding compound 0.01 μM, read-out: Percent Binding Inhibition
[4] = FLNA-binding compound 0.1 μM, read-out: Percent Binding Inhibition
[5] = FLNA-binding compound 1 μM, read-out: Percent Binding Inhibition
[6] = Series C-2, 0.1 μM compound, relative to DAMGO
[7] = Series C-2, 0.1 μM compound, [35S]GTPγS binding to Gαo, striatal membranes
[8] = Series C-2, 1 μM compound + 1 μM β-FNA
[9] = Series C-2, 1 μM compound + β-FNA, relative to DAMGO + BFNA
[10] = Series C-2, 1 μM compound, relative to DAMGO
[11] = Series C-2, 1 μM compound, [35S]GTPγS binding to Gαo, striatal membranes
[12] = 0.1 μM compound relative to DAMGO
[13] = 1 μM compound + BFNA relative to DAMGO + BFNA
[14] = 1 μM compound relative to DAMGO
[15] = Series C-1, 0.1 μM compound, relative to DAMGO
[16] = Series C-1, 0.1 μM compound, [35S]GTPγS binding to Gαo, striatal membranes
[17] = Series C-1, 1 μM compound + 1 μM β-FNA
[18] = Series C-1, 1 μM compound + β-FNA, relative to DAMGO + BFNA
[19] = Series C-1, 1 μM compound, relative to DAMGO
[20] = Series C-1, 1 μM compound, [35S]GTPγS binding to Gαo, striatal membranes

## CCOC(=O)CN1CCC2(CC1)OCCN2S(=O)(=O)c1ccc(C(C)=O)cc1 [Compound C0099M]
[1]; [3]
  inhibition at 0.01 µM: 46.9%
[1]; [4]
  inhibition at 0.1 µM: 53.3%
[1]; [5]
  inhibition at 1 µM: 56%
[2]; [6]
  % DAMGO (0.1 μM): 93.8%
[2]; [7]
  MOR agonist activity, percent [35S]GTPγS binding at the stated compound concentration: 157.2%
[2]; [8]
  MOR agonist activity, percent [35S]GTPγS binding at the stated compound concentration: 114.7%
[2]; [9]
  % DAMGO + BFNA: 241.5%
[2]; [10]
  % DAMGO (1 μM): 88.0%
[2]; [11]
  MOR agonist activity, percent [35S]GTPγS binding at the stated compound concentration: 195.7%

## CC1CCCC(OCC(O)CN2CC(C)OC(C)C2)C1 (stereo not drawn) [Compound A0021]
[1]; [3]
  inhibition at 0.01 µM: 36.8%
[1]; [4]
  inhibition at 0.1 µM: 43.4%
[1]; [5]
  inhibition at 1 µM: 49.5%
[2]; 0.1 μM compound
  MOR agonist activity ([35S]GTPγS binding), FLNA-Binding Compound as Agonist 0.1 μM: 133.3%
[2]; [12]
  % DAMGO (0.1 μM): 79.8%
[2]; 1 μM compound
  MOR agonist activity ([35S]GTPγS binding), FLNA-Binding Compound as Agonist 1 μM: 275.3%
[2]
  MOR agonist activity ([35S]GTPγS binding), FLNA-Binding Compound as Agonist 1 μM + BFNA: 12.1%
[2]; [13]
  % DAMGO + BFNA: 34.9%
[2]; [14]
  % DAMGO (1 μM): 112.4%

## COc1ccccc1CC(=O)CC1c2c(cc3c(c2OC)OCO3)CC[N+]1(C)C (stereo not drawn) [Compound 5009]
[1]; read-out: Percent Binding Inhibition, FLNA-binding compound 0.01 μM
  inhibition at 0.01 µM: 42.5%
[1]; read-out: Percent Binding Inhibition, FLNA-binding compound 0.1 μM
  inhibition at 0.1 µM: 47.3%
[1]; read-out: Percent Binding Inhibition, FLNA-binding compound 1 μM
  inhibition at 1 µM: 54.3%
[2]; Series B, 0.1 μM compound, relative to DAMGO
  % DAMGO (0.1 μM): 66.9%
[2]; Series B, 0.1 μM compound, [35S]GTPγS binding to Gαo, striatal membranes
  MOR agonist activity, percent [35S]GTPγS binding at the stated compound concentration: 128.5%
[2]; Series B, 1 μM compound + 1 μM β-FNA
  MOR agonist activity, percent [35S]GTPγS binding at the stated compound concentration: 87.5%
[2]; Series B, 1 μM compound + β-FNA, relative to DAMGO + BFNA
  % DAMGO + BFNA: 181.5%
[2]; Series B, 1 μM compound, relative to DAMGO
  % DAMGO (1 μM): 83.2%
[2]; Series B, 1 μM compound, [35S]GTPγS binding to Gαo, striatal membranes
  MOR agonist activity, percent [35S]GTPγS binding at the stated compound concentration: 270.4%

## O=C(O)c1ccc(C(=O)N2CCC3(CC2)OCCN3S(=O)(=O)c2ccc(C(=O)O)cc2)cc1 [Compound C0021]
[1]; [3]
  inhibition at 0.01 µM: 34%
[1]; [4]
  inhibition at 0.1 µM: 38.4%
[1]; [5]
  inhibition at 1 µM: 40.6%
[2]; [15]
  % DAMGO (0.1 μM): 94.5%
[2]; [16]
  Concentration of FLNA-Binding Compound as Agonist 0.1 μM: 159.7%
[2]; [17]
  Concentration of FLNA-Binding Compound as Agonist 1 μM + BFNA: 90.7%
[2]; [18]
  % DAMGO + BFNA: 546.4%
[2]; [19]
  % DAMGO (1 μM): 87.8%
[2]; [20]
  Concentration of FLNA-Binding Compound as Agonist 1 μM: 192.0%

## O=S(=O)(c1ccc(Cl)cc1)N1CCC2(CC1)OCCN2S(=O)(=O)c1ccc(Cl)cc1 [Compound C0067]
[1]; [3]
  inhibition at 0.01 µM: 31.3%
[1]; [4]
  inhibition at 0.1 µM: 39.7%
[1]; [5]
  inhibition at 1 µM: 45%
[2]; [15]
  % DAMGO (0.1 μM): 82.9%
[2]; [16]
  Concentration of FLNA-Binding Compound as Agonist 0.1 μM: 142.7%
[2]; [17]
  Concentration of FLNA-Binding Compound as Agonist 1 μM + BFNA: 33.5%
[2]; [18]
  % DAMGO + BFNA: 97.1%
[2]; [19]
  % DAMGO (1 μM): 81.5%
[2]; [20]
  Concentration of FLNA-Binding Compound as Agonist 1 μM: 179.0%

## CC(=O)c1ccc(S(=O)(=O)N2CCOC23CCN(CC(=O)O)CC3)cc1 [Compound C0100M]
[1]; [3]
  inhibition at 0.01 µM: 52.2%
[1]; [4]
  inhibition at 0.1 µM: 58.2%
[1]; [5]
  inhibition at 1 µM: 64.5%
[2]; [6]
  % DAMGO (0.1 μM): 103.6%
[2]; [7]
  MOR agonist activity, percent [35S]GTPγS binding at the stated compound concentration: 173.6%
[2]; [8]
  MOR agonist activity, percent [35S]GTPγS binding at the stated compound concentration: 195.6%
[2]; [9]
  % DAMGO + BFNA: 411.8%
[2]; [10]
  % DAMGO (1 μM): 110.6%
[2]; [11]
  MOR agonist activity, percent [35S]GTPγS binding at the stated compound concentration: 245.9%

## CC1CCC(C(C)C)C(OCC(O)CN2CCOc3ccccc32)C1 (stereo not drawn) [Compound A0066]
[1]; FLNA-binding compound 0.01 μM
  Percent Binding Inhibition: 36.7%
[1]; FLNA-binding compound 0.1 μM
  Percent Binding Inhibition: 45.4%
[1]; FLNA-binding compound 1 μM
  Percent Binding Inhibition: 53.7%
[2]; 0.1 μM compound
  MOR agonist activity ([35S]GTPγS binding), FLNA-Binding Compound as Agonist 0.1 μM: 151.9%
[2]; [12]
  % DAMGO (0.1 μM): 88.3%
[2]; 1 μM compound
  MOR agonist activity ([35S]GTPγS binding), FLNA-Binding Compound as Agonist 1 μM: 195.6%
[2]
  MOR agonist activity ([35S]GTPγS binding), FLNA-Binding Compound as Agonist 1 μM + BFNA: 59.2%
[2]; [13]
  % DAMGO + BFNA: 171.6%
[2]; [14]
  % DAMGO (1 μM): 89.0%
